Experimental data taken from patent publication US20020051982A1, “Novel BLR molecules affecting antibiotic susceptibility” (priority 2000, published 2002).
≈ marks a conversion by molar mass, not a printed value. Read-outs that look alike come from different tables or passages of the source.

Tests used:
Format in all cases: cell-based, E. coli
RW583 = assay: Antibiotic susceptibility of the blr::TnphoA insertion mutant compared with the parent; details: for effect of the insertion on susceptibility: transconjugant RW583 (blr::TnphoA) versus parental strain
Source text: Donor E. coli K 12 strain S17-1 λpir (Tp^rSm^rrecA, thi, pro, hsdR^−M^+RP4;2-Tc:Mu:KmTn7,λpir; George and Levy. 1983. J Bacteriol 1983 Aug; 155 (2): 531-48) containing a conjugatable transposon-delivery plasmid pUT/Km (able to replicate only in the donor) which bore mini-Tn5phoA (de Lorenzo, V. & Timmis, K. N. Meth. Enzymol. 235, 386-404 (1994)) was mated with recipient ASS111rif and plated on kanamycin/rifamycin. Transconjugant RW583 had both PhoA activity and a 2-4 fold enhanced susceptibility to a wide spectrum of antibiotics […] including cephalosporins and imipenem (Table 1) as well as cycloserine and bacitracin, while susceptibility to tetracycline, chloramphenicol, nalidixic acid, norfloxacin, gentamicin, fosfomycin or valinomycin was not affected. The insertion was transduced (Provence, D. L. & Curtiss, R. I. in Methods for General and Molecular Bacteriology (ed. Gerhardt, P., Murry, R. G. E., Wood, W. A. & Kreig, N. R.) 317-347 (American Society for Microbiology, Washington D.C. 1994)) by bacteriophage P1 into other E. coli K12 strains, where it had the same effect on susceptibility (Table 1).
The cloned 358 base pairs region restored the wild type phenotype to the hypersusceptible strain bearing blr::TnphoA, regardless of orientation with respect to the lac promoter (Table 1, pRW23C vs pRW23D). The HindIII/PstI fragment of pACYC 184 (carrying the tet promoter and part of the tet gent) was replaced by the HindIII/PstI fragment from pRW23D. […] Therefore the 358 base pairs region appeared to contain all the information needed for complementation.

[1] = system: ASS111rif blr::TnphoA (=RW583); assay: E-test susceptibility on LB agar, strain RW583 without or with plasmids; parameters: unit not given here
AW1045 = assay: E-test susceptibility on LB agar, strain AW1045; parameters: unit not given here
AW1045 blr::TnphoA = assay: E-test susceptibility on LB agar, strain AW1045 blr::TnphoA; parameters: unit not given here
WY100 = assay: E-test susceptibility on LB agar, strain WY100; parameters: unit not given here
WY100 blr::TnphoA = assay: E-test susceptibility on LB agar, strain WY100 blr::TnphoA; parameters: unit not given here
ASS11rif (blr^+) = assay: MIC for ampicillin, complementation test, wild type host; details: Escherichia coli
[2] = system: RW583 (ASS111rifblr::TnphoA); assay: MIC for ampicillin, complementation in RW583; details: Escherichia coli
S26 blr^+ = assay: MIC for ampicillin, non-suppressor S26 host, blr^+; details: plasmid None;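 also: MIC in µg per mL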
S26 blr::TnphoA = assay: MIC for ampicillin, non-suppressor S26 host, blr::TnphoA;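 also: MIC in µg per mL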
S26su^+ blr^+ = assay: MIC for ampicillin, leuX amber suppressor host S26su^+, blr^+; details: plasmid None;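 also: MIC in µg per mL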
S26su^+ blr::TnphoA = assay: MIC for ampicillin, leuX amber suppressor host S26su^+, blr::TnphoA;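 also: MIC in µg per mL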
[3] = system: blr::TnphoA insertion mutant; assay: Decline in optical density of growing cultures; details: insertion mutant versus wild type
[4] = RW58s + pRW23D (blr^+, 358 base pairs)
[5] = RW583 + pRW23A (blr^+, 680 base pairs)
[6] = RW583 + pRW23C (blr^+, 358 base pairs)
[7] = strain ASS111rif blr::TnphoA (=RW583), no plasmid
[8] = Blr::TnphoA, pL24tag1 (amber blr)
[9] = Blr::TnphoA, pL39tag3 (amber L39 blr)
[10] = blr::TnphoA, pRW23C (wild type blr)

Compound: CCn1cc(C(=O)O)c(=O)c2ccc(C)nc21 [nalidixic acid]
- effect of the insertion on susceptibility (RW583): not affected

Compound: gentamicin
- effect of the insertion on susceptibility (RW583): not affected

Compound: CO[C@@]1(NC(=O)Cc2cccs2)C(=O)N2C(C(=O)O)=C(COC(N)=O)CS[C@@H]21 [Cefoxitin]
- susceptibility (E-test strip) [1, 4]: 1.5
- susceptibility (E-test strip) ([1]; RW583 + pACYC184 (vector)): 0.75
- susceptibility (E-test strip) [1, 5]: 2
- susceptibility (E-test strip) [1, 6]: 1.5
- susceptibility (E-test strip) ([1]; RW583 + pUC19Sp^R (vector)): 0.75
- susceptibility (E-test strip) [1, 7]: 1.0
- susceptibility (E-test strip) (AW1045): 3
- susceptibility (E-test strip) (AW1045 blr::TnphoA): 1.5
- susceptibility (E-test strip) (WY100): 3
- susceptibility (E-test strip) (WY100 blr::TnphoA): 1.5

Compound: CC1(C)S[C@@H]2[C@H](NC(=O)[C@H](N)c3ccccc3)C(=O)N2[C@H]1C(=O)O [Ampicillin]
- susceptibility (E-test strip) [1, 4]: 2
- susceptibility (E-test strip) ([1]; RW583 + pACYC184 (vector)): 0.5
- susceptibility (E-test strip) [1, 5]: 3
- susceptibility (E-test strip) [1, 6]: 2
- susceptibility (E-test strip) ([1]; RW583 + pUC19Sp^R (vector)): 0.25
- susceptibility (E-test strip) [1, 7]: 0.5
- susceptibility (E-test strip) (AW1045): 3
- susceptibility (E-test strip) (AW1045 blr::TnphoA): 0.75
- susceptibility (E-test strip) (WY100): 3
- susceptibility (E-test strip) (WY100 blr::TnphoA): 0.75
- MIC (ASS11rif (blr^+); host ASS11rif blr^+, plasmid pRW23C (wild type blr), read-out: MIC for ampicillin): 1 µg/mL (≈ 2.86 µM)
- MIC (ASS11rif (blr^+); read-out: MIC for ampicillin, host ASS11rif blr^+, plasmid None): 1.1 µg/mL (≈ 3.15 µM)
- MIC ([2]; host RW583, plasmid None): 0.13 µg/mL (≈ 0.372 µM)
- MIC ([2]; host RW583, plasmid PQ13tag1 (amber Q13 blr)): 1.1 µg/mL (≈ 3.15 µM)
- MIC ([2]; host RW583, plasmid PV20tag1 (amber V20 blr)): 1.2 µg/mL (≈ 3.43 µM)
- MIC ([2]; host RW583, plasmid pL24tag1 (amber L24 blr)): 0.13 µg/mL (≈ 0.372 µM)
- MIC ([2]; host RW583, plasmid pRW23C (wild type blr)): 1.1 µg/mL (≈ 3.15 µM)
- MIC ([2]; host RW583, plasmid pUC19-Sp^R (none)): 0.09 µg/mL (≈ 0.258 µM)
- MIC for ampicillin (S26 blr^+): 3.3 µg·mL
- MIC for ampicillin (S26 blr::TnphoA; [8]): 0.9 µg·mL
- MIC for ampicillin (S26 blr::TnphoA; [9]): 0.2 µg·mL
- MIC for ampicillin (S26 blr::TnphoA; [10]): 2.8 µg·mL
- MIC for ampicillin (S26 blr::TnphoA; blr::TnphoA, pUC19-Sp^R (none)): 0.5 µg·mL
- MIC for ampicillin (S26 blr::TnphoA; blr::TnphoA, plasmid None): 0.5 µg·mL
- MIC for ampicillin (S26su^+ blr^+): 3.5 µg·mL
- MIC for ampicillin (S26su^+ blr::TnphoA; [8]): 2.1 µg·mL
- MIC for ampicillin (S26su^+ blr::TnphoA; [9]): 0.2 µg·mL
- MIC for ampicillin (S26su^+ blr::TnphoA; [10]): 3.0 µg·mL
- MIC for ampicillin (S26su^+ blr::TnphoA; blr::TnphoA, pUC19-Sp^R (none)): 1.1 µg·mL
- MIC for ampicillin (S26su^+ blr::TnphoA; blr::TnphoA, plasmid None): 1.0 µg·mL
- restoration of resistance by plasmid (RW583; blr::TnphoA strain with pRWA7 (no vector-derived promoter for blr)): completely restored resistance
- drug concentration required for decline in optical density of growing cultures [3]: lower drug concentration

Compound: C[C@@H]1O[C@@H]1P(=O)(O)O [fosfomycin]
- effect of the insertion on susceptibility (RW583): not affected

Compound: O=C(N[C@H](CO)[C@H](O)c1ccc([N+](=O)[O-])cc1)C(Cl)Cl [chloramphenicol]
- effect of the insertion on susceptibility (RW583): not affected

Compound: CC(C)[C@@H]1NC(=O)[C@H](C)OC(=O)[C@@H](C(C)C)NC(=O)[C@@H](C(C)C)OC(=O)[C@H](C(C)C)NC(=O)[C@H](C)OC(=O)[C@@H](C(C)C)NC(=O)[C@@H](C(C)C)OC(=O)[C@H](C(C)C)NC(=O)[C@H](C)OC(=O)[C@@H](C(C)C)NC(=O)[C@@H](C(C)C)OC1=O [valinomycin]
- effect of the insertion on susceptibility (RW583): not affected

Compound: CCn1cc(C(=O)O)c(=O)c2cc(F)c(N3CCNCC3)cc21 [norfloxacin]
- effect of the insertion on susceptibility (RW583): not affected

Compound: CO/N=C(\C(=O)N[C@@H]1C(=O)N2C(C(=O)[O-])=C(C[N+]3(C)CCCC3)CS[C@H]12)c1csc(N)n1 [Cefepime]
- susceptibility (E-test strip) [1, 4]: 0.023
- susceptibility (E-test strip) ([1]; RW583 + pACYC184 (vector)): <0.016
- susceptibility (E-test strip) [1, 5]: 0.032
- susceptibility (E-test strip) [1, 6]: 0.023
- susceptibility (E-test strip) ([1]; RW583 + pUC19Sp^R (vector)): <0.016
- susceptibility (E-test strip) [1, 7]: <0.016
- susceptibility (E-test strip) (AW1045): 0.023
- susceptibility (E-test strip) (AW1045 blr::TnphoA): <0.016
- susceptibility (E-test strip) (WY100): 0.047
- susceptibility (E-test strip) (WY100 blr::TnphoA): <0.016

Compound: CO/N=C(\C(=O)N[C@@H]1C(=O)N2C(C(=O)O)=C(CSc3nc(=O)c(=O)[nH]n3C)CS[C@H]12)c1csc(N)n1 [Ceftriaxone]
- susceptibility (E-test strip) [1, 4]: 0.016
- susceptibility (E-test strip) ([1]; RW583 + pACYC184 (vector)): <0.016
- susceptibility (E-test strip) [1, 5]: 0.023
- susceptibility (E-test strip) [1, 6]: 0.016
- susceptibility (E-test strip) ([1]; RW583 + pUC19Sp^R (vector)): <0.016
- susceptibility (E-test strip) [1, 7]: <0.016
- susceptibility (E-test strip) (AW1045): 0.032
- susceptibility (E-test strip) (AW1045 blr::TnphoA): <0.016
- susceptibility (E-test strip) (WY100): 0.125
- susceptibility (E-test strip) (WY100 blr::TnphoA): 0.32

Compound: CCN1CCN(C(=O)N[C@@H](C(=O)N[C@@H]2C(=O)N3[C@@H]2SC(C)(C)[C@@H]3C(=O)O)c2ccccc2)C(=O)C1=O [Pipericillin]
- susceptibility (E-test strip) [1, 4]: 1.0
- susceptibility (E-test strip) ([1]; RW583 + pACYC184 (vector)): 0.25
- susceptibility (E-test strip) [1, 5]: 1.5
- susceptibility (E-test strip) [1, 6]: 1.0
- susceptibility (E-test strip) ([1]; RW583 + pUC19Sp^R (vector)): 1.25
- susceptibility (E-test strip) [1, 7]: 0.25
- susceptibility (E-test strip) (AW1045): 1.0
- susceptibility (E-test strip) (AW1045 blr::TnphoA): 0.25
- susceptibility (E-test strip) (WY100): 1.5
- susceptibility (E-test strip) (WY100 blr::TnphoA): 0.75

Compound: C[C@@H](O)[C@H]1C(=O)N2C(C(=O)O)=C(SCCN=CN)C[C@H]12 [Imipene, imipenem]
- susceptibility (E-test strip) [1, 4]: 0.25
- susceptibility (E-test strip) ([1]; RW583 + pACYC184 (vector)): 0.19
- susceptibility (E-test strip) [1, 5]: 0.38
- susceptibility (E-test strip) [1, 6]: 0.19
- susceptibility (E-test strip) ([1]; RW583 + pUC19Sp^R (vector)): 0.125
- susceptibility (E-test strip) [1, 7]: 0.19
- susceptibility (E-test strip) (AW1045): 0.38
- susceptibility (E-test strip) (AW1045 blr::TnphoA): 0.125
- susceptibility (E-test strip) (WY100): 0.25
- susceptibility (E-test strip) (WY100 blr::TnphoA): 0.125
